According to patent US12239629B2 (priority 2020, dated 2025):

Legend:
[1] = test system: SARS-CoV2; assay: Drug added to Vero E6 cells immediately after SARS-CoV2 adsorption, indirect immunofluorescence after 24 hours; format: cell-based
Protocol: (§1) In carrying out the in vitro experiments, vero E6 cells (an African green monkey kidney cell line) were infected with SARS-CoV2 at a multiplicity of infection of 0.5 for 1 hour. The cells were washed with PBS and then incubated in OPTI-MEM (Invitrogen) medium with or without various concentrations of the following drug candidates: Artemether (from BiopharmaRx) Hydroxychloroquine (from Sigma Aldrich), Atazanavir (from Sigma Aldrich), and Efavirenz (from Sigma Aldrich), Fosamprenavir Calcium (from Sigma Aldrich), Saquinavir (from Sigma Aldrich) and Remdesivir (from AOBIOUS, INC., USA)
(§2) Immunofluorescence staining was performed with SARS-CoV2-specific hyperimmune mouse ascitic fluid (HMAF) followed by anti-mouse fluorescein-coupled antibody.
The antiviral properties of artemether on SARS-CoV2 after the initiation of infection were studied. Vero E6 cells were infected with the virus and fresh medium supplemented with various concentrations of artemether was added immediately after virus adsorption. Infected cells were incubated for an additional 24 hours, after which the presence of virus antigens was analyzed by indirect immunofluorescence analysis. When artemether was added after the initiation of infection, there was a dramatic dose dependent decrease in the number of virus antigen-positive cells. […] A half-maximal inhibitory effect was estimated to occur at 16.5±1.0 μM artemether. […] (FIG. 2).

[2] = Peak Inhibitory Concentration (Threshold) after oral administration
Protocol: It is noted that the Peak Inhibitory Concentration (Threshold) of Artemether and Remdesivir were at 120 minutes after oral administration. The Peak Inhibitory Concentration (Threshold) of Lumefantrine was at 60 minutes after oral administration.

[3] = test system: SARS-CoV2; assay: In-vitro experiments, time of drug addition relative to infection; format: cell-based; conditions: added between 3 hours pre-infection and 3 hours after infection
Protocol: Less inhibition was detected when the drug was added after 12 hours post-infection (Our observation was consistent with the report by Agostini et al regarding GS-5734 (remdesivir) (Agostini M L, Andres E L, Sims A C, Graham R L, Sheahan T P, Lu X, Smith E C, Case J B, Feng J Y, Jordan R, Ray AS, Cihlar T, Siegel D, Mackman R L, Clarke M O, Baric R S, Denison M R. 2018. Coronavirus susceptibility to the antiviral remdesivir (GS-5734) is mediated by the viral polymerase and the proofreading exoribonuclease. mBio 9:e00221-18. https://doi.org/10.1128/mBio.00221-18.).
as §1

[4] = Artemether via nasal delivery system in vivo; conditions: administered locally via nasal delivery system in vivo
[5] = cited from earlier work
[6] = test system: SARS-CoV2; assay: Drug pretreatment of Vero E6 cells prior to SARS-CoV2 infection, indirect immunofluorescence; format: cell-based; conditions: pretreatment 18-24 hours prior to virus infection
Protocol: as §1, §2
Experiments were carried out to determine the impact of artemether treatment on SARS-CoV2 infection. Permissive Vero E6 cells were pre-treated with various concentrations of artemether (0.1-50 μM) for 18-24 hours prior to virus infection. Cells were then infected with SARS-CoV2, and virus antigens were visualized by indirect immunofluorescence. For quantitative purposes, we counted the number of cells stained positive from three random locations on a slide. The average number of positively stained control cells was scored as 100% and was compared with the number of positive cells observed under various artemether concentrations. Pretreatment with 0.1, 1, 10, 20, 30, 40 and 50 μM artemether reduced infectivity by 4%, 12%, 32%, 45%, 63%, 92% and 100% respectively. Reproducible results were obtained from three independent experiments.

[7] = Dissolution test of Artemether/Lumefantrine-Remdesivir soft gel capsule; format: physicochemical; conditions: 0.1 N. HCl with 3% Benzalkonium Chloride
Text: The soft gel capsule of Artemether and Lumefantrine is comprised: Artemether 4 to 5% w/w, Lumefantrine 20-24% w/w, Remdesivir 18-20%, non-aqueous vehicle 15-20% w/w, preservative less than 1% w/w, viscosity imparting agent 15-20% w/w, suspending agent 1 to 5% w/w and emulsifying agent 1 to 3% w/w and a process to manufacture the said preparation comprising of the following steps as given in the above Patent. • (a) Preservatives and Solid Suspending Agents were milled and sifted. • (b) Non-aqueous vehicle, viscosity imparting agent and liquid suspending agents were filtered to remove the foreign particles • (c) Additional steps for mixing preservatives and suspending agents: • (i) Preservatives were dissolved in non-aqueous vehicle; • (ii) Emulsifying agents were warmed and/or melted and added into mixture in (i) above; • (iii) Viscosity imparting agent is added to mixture of (ii) above and the resultant mixture is stirred. • (iv) Suspending agent is added and mixed with the mixture in (iii) above; and • (v) The mixture of (a) above and (c) (iv) above was homogenized. • (d) The mixture in (v) above was the encapsulated in soft gelatin.
Drug dissolution testing is routinely used to provide critical in vitro drug release information for both quality control purposes to predict in vivo drug release profiles.
The media for dissolution test was 0.1 N. HCl with 3% Benzalkonium Chloride.

[8] = in vivo; cited from earlier work

Substance | inhibition ([1]; 40-100 μM concentrations, added after the initiation of infection) | reduced the infection ([1]; approximately 10 μM added immediately after virus adsorption, 24 hours) | IC50 ([1]; drug added immediately after virus adsorption, Vero E6 cells, estimated, read-out: half-maximal inhibitory effect) | time of Peak Inhibitory Concentration (Threshold) [2] | inhibition by time of addition [3] | absorption and bioavailability, nasal vs systemic administration [4] | solubility in water (words) [5] | reduced infectivity ([6]; 0.1 μM) | reduced infectivity ([6]; 1 μM) | reduced infectivity ([6]; 10 μM) | reduced infectivity ([6]; 20 μM) | reduced infectivity ([6]; 30 μM) | reduced infectivity ([6]; 40 μM) | reduced infectivity ([6]; 50 μM) | % Cumulative Drug Release ([7]; 60 minute time frame) | % of Drug Release in a Dissolution Test ([7]; sample time 30 minute) | % of Drug Release in a Dissolution Test ([7]; sample time 60 minute) | % of Drug Release in a Dissolution Test ([7]; sample time 90 minute) | % of Drug Release in a Dissolution Test ([7]; sample time 120 minute) | LD50 [8]
(1R.4S,5R.8S.9R, 10S, 12R, 13R)-10-methoxy-1,5,9-trimethyl-11,14,15,16-tetraoxatetracyclo[10.3. 1.04, 13.08, 13]hexadecane [Artemether] | 71-96% | 40% | 16.5 ± 1 µM | 120 min | maximal inhibition | adsorbed quickly with more bioavailability | sparingly soluble | 4% | 12% | 32% | 45% | 63% | 92% | 100% | 92.3% | 47.3% | 72.25% | 88.7% | 93.8% | –
Chitosan | – | – | – | – | – | – | – | – | – | – | – | – | – | – | – | – | – | – | – | > 4000 mg/kg
